Assay [1] concerns the target Serine/threonine-protein kinase SIK1 (Homo sapiens) (UniProt P57059). Nature of the assay: Selectivity interaction (ProQinase) EUB0000171b SIK1.
The target in assay [2] is Serine/threonine-protein kinase mTOR (Homo sapiens, UniProt P42345). Nature of the assay: Selectivity interaction (ProQinase) EUB0000171b MTOR.
Assay [3] has as its target Serine/threonine-protein kinase PLK3 (Homo sapiens, UniProt Q9H4B4). The assay is described as follows: Selectivity interaction (KinomeScan (DiscoverX)) EUB0001049a PLK3. The note with it: at 1 µM.
Assay [4] has as its target Non-receptor tyrosine-protein kinase TYK2 (Homo sapiens, UniProt P29597). The assay is described as follows: Selectivity interaction (KinomeScan (DiscoverX)) EUB0000655a TYK2. The conditions noted are these: at 10 µM.
Assay [5] concerns the target Mitogen-activated protein kinase 6 (Homo sapiens) (UniProt Q16659). Nature of the assay: Selectivity interaction (KinomeScan (DiscoverX)) EUB0000655a MAPK6. The note with it: at 10 µM.
For assay [6], the target named is Tyrosine-protein kinase SYK (Homo sapiens, UniProt P43405). The assay is described as follows: Selectivity interaction (KinomeScan (DiscoverX)) EUB0000666a SYK. The note with it: at 10 µM.
The target of assay [7] is Dual specificity testis-specific protein kinase 1 (Homo sapiens) (UniProt Q15569). The assay is described as follows: Selectivity interaction (KinomeScan (DiscoverX)) EUB0000666a TESK1. The conditions noted are these: at 10 µM.
The target of assay [8] is T1, RNA 5'-monophosphate methyltransferase (Homo sapiens) (UniProt Q7Z5W3).
T1 sequence (whole entry): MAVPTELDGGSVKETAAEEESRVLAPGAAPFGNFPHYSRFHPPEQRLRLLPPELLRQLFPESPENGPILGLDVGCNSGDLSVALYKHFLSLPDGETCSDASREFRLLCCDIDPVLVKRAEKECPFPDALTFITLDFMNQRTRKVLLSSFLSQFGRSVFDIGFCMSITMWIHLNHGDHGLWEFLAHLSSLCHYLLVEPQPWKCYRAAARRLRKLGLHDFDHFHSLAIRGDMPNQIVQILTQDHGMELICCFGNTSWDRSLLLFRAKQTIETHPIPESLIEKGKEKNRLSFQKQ
The assay is described as follows: Selectivity interaction (Methyltransferase screen (radiometric assays, panel of 8 PRMTs, 21 protein lysine methyltransferases, 3 DNA methyltransferases, and one RNA methyltransferase)) EUB0000272b BCDIN3D.

Assay [9] addresses T2, Interleukin-1 receptor-associated kinase 3 (Homo sapiens) (UniProt Q9Y616).
T2 sequence (whole entry): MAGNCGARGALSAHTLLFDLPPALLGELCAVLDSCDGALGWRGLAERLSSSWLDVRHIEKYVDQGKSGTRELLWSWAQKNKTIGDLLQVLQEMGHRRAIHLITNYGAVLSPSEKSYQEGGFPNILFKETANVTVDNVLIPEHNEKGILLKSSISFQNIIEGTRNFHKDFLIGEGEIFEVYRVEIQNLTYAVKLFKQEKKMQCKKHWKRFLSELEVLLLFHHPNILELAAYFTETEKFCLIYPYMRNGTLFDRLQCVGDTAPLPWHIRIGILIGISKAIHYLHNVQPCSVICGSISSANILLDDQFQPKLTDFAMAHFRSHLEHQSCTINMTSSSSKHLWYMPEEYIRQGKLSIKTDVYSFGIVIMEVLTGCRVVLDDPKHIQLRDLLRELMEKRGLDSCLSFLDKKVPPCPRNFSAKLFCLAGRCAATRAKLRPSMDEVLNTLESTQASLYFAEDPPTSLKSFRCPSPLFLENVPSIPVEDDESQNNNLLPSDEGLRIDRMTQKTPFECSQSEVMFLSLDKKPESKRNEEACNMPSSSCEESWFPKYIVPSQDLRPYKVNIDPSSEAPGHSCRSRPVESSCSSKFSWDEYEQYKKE
Nature of the assay: Selectivity interaction (ActivX KiNativ screen (kinase selectivity in THP-1 cell lysates)) EUB0000639a IRAK3. The conditions noted are these: lysate, at 5 µM. It is filed as subcellular.

The subject of assay [10] is Proto-oncogene tyrosine-protein kinase receptor Ret (Homo sapiens), P07949 [M918T]. The assay is described as follows: Selectivity interaction (KinomeScan (DiscoverX)) EUB0000229b RET. The conditions noted are these: at 1 µM.
In assay [11] the target is Cyclin-dependent kinase 11B (Homo sapiens) (UniProt P21127). The assay is described as follows: Selectivity interaction (KinomeScan (DiscoverX)) EUB0001619a CDK11B. The note with it: at 1 µM.
Chain of Cyclin-dependent kinase 11B (Homo sapiens) (P21127 whole entry): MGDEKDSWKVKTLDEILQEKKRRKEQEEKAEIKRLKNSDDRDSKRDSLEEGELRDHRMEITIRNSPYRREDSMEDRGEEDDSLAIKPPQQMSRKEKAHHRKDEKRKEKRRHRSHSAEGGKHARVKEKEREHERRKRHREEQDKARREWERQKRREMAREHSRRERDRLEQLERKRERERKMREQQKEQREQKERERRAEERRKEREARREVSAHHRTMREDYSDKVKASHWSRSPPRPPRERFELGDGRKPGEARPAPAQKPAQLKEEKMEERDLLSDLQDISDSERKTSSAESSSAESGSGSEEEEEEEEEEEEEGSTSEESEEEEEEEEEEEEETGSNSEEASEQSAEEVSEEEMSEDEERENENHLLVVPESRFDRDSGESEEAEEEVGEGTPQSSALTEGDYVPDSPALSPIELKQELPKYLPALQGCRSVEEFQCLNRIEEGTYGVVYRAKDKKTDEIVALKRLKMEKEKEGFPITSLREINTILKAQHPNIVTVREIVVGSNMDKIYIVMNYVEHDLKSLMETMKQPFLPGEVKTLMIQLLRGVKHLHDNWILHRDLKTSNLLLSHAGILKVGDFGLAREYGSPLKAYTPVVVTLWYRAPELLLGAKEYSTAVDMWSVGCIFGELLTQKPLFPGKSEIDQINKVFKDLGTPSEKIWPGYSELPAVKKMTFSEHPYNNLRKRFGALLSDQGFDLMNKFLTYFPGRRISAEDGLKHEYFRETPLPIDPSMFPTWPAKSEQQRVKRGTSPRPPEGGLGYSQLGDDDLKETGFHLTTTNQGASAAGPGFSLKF
The target of assay [12] is MAP kinase-interacting serine/threonine-protein kinase 1 (Homo sapiens) (UniProt Q9BUB5). Nature of the assay: Selectivity interaction (KinomeScan (DiscoverX)) EUB0001619a MKNK1. The note with it: at 1 µM.
Chain of MAP kinase-interacting serine/threonine-protein kinase 1 (Homo sapiens) (Q9BUB5 whole entry, looked up): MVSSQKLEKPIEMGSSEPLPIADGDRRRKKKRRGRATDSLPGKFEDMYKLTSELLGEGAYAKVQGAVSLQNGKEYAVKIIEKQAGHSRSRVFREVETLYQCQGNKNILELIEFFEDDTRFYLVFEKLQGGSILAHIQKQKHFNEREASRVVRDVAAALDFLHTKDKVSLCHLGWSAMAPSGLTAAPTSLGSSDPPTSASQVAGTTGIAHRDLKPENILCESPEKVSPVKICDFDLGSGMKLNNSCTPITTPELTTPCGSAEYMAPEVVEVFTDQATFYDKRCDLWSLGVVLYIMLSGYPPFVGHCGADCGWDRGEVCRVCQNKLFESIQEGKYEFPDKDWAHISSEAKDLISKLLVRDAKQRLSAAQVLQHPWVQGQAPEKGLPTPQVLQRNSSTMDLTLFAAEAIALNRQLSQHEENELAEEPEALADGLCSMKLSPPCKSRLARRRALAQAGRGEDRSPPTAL

Chain of Serine/threonine-protein kinase SIK1 (Homo sapiens) (P57059 whole entry): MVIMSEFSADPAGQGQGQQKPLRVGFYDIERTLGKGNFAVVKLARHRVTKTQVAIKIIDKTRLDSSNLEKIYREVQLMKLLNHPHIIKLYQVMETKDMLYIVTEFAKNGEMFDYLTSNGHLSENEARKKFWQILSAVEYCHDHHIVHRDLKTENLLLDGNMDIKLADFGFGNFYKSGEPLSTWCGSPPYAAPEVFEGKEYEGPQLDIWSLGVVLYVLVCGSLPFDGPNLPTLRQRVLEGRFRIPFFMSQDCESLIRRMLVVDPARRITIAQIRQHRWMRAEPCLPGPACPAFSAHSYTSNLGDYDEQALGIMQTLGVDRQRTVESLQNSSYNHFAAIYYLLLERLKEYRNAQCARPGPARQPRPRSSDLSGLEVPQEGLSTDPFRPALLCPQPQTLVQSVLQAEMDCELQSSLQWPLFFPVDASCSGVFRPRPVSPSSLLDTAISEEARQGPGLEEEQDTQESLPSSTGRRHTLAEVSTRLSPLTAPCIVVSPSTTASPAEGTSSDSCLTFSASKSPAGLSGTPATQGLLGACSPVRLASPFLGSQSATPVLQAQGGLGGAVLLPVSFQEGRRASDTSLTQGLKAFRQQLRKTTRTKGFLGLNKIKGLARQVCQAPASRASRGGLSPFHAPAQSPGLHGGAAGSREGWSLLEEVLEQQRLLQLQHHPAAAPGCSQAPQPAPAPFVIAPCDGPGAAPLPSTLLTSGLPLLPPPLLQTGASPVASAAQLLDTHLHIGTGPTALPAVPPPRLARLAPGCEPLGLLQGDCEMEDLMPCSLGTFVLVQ
Chain of Mitogen-activated protein kinase 6 (Homo sapiens) (Q16659 whole entry): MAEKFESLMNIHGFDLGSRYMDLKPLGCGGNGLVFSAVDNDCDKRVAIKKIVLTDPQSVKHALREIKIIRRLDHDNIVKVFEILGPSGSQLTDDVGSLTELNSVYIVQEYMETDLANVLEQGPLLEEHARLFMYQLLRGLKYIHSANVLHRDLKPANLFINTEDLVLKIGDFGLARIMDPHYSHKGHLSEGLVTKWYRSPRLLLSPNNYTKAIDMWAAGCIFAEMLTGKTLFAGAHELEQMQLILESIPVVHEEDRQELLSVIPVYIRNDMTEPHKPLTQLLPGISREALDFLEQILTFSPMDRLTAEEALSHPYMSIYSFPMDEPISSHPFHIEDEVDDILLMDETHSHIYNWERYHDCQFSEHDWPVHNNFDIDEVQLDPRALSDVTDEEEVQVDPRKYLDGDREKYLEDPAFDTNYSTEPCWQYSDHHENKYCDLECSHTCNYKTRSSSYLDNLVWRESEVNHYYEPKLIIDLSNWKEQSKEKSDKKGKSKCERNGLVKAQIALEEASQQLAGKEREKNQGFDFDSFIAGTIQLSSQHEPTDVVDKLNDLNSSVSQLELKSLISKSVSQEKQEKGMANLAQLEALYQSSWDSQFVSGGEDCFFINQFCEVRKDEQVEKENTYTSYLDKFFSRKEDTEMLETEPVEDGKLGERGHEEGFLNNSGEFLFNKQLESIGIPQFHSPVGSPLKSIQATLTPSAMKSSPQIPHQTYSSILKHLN
Chain of Non-receptor tyrosine-protein kinase TYK2 (P29597 whole entry): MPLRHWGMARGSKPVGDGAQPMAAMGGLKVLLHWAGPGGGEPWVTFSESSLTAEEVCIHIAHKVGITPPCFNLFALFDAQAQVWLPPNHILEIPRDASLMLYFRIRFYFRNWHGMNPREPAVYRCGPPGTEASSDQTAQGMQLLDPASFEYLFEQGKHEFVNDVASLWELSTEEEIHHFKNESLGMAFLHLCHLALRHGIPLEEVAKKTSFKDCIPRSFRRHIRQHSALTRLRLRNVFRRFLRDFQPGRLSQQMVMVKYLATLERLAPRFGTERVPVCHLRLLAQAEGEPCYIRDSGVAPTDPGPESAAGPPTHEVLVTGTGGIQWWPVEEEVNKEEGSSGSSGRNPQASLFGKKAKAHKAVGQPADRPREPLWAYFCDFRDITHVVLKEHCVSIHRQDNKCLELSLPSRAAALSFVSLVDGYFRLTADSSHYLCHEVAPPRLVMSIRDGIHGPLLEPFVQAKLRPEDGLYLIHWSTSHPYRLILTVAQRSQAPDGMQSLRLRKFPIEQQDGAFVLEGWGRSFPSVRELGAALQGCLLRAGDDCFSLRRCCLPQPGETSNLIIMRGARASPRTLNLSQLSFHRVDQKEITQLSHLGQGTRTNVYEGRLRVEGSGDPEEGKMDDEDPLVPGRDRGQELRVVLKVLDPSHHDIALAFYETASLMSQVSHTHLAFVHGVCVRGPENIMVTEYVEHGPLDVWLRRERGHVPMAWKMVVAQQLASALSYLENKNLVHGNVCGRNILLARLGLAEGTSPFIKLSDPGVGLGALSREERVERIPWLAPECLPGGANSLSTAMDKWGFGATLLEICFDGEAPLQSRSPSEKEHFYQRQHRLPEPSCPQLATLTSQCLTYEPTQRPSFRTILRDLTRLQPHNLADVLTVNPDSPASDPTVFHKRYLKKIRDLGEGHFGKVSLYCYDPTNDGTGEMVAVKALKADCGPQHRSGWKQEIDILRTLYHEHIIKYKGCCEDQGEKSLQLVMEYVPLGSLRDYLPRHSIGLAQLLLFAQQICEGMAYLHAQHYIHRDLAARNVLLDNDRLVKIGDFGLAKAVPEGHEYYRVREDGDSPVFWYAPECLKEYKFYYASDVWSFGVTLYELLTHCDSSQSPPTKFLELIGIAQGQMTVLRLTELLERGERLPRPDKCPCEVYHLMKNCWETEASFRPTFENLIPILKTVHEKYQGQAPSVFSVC
Chain of Proto-oncogene tyrosine-protein kinase receptor Ret (Homo sapiens), P07949 [M918T] (P07949 whole entry M918T): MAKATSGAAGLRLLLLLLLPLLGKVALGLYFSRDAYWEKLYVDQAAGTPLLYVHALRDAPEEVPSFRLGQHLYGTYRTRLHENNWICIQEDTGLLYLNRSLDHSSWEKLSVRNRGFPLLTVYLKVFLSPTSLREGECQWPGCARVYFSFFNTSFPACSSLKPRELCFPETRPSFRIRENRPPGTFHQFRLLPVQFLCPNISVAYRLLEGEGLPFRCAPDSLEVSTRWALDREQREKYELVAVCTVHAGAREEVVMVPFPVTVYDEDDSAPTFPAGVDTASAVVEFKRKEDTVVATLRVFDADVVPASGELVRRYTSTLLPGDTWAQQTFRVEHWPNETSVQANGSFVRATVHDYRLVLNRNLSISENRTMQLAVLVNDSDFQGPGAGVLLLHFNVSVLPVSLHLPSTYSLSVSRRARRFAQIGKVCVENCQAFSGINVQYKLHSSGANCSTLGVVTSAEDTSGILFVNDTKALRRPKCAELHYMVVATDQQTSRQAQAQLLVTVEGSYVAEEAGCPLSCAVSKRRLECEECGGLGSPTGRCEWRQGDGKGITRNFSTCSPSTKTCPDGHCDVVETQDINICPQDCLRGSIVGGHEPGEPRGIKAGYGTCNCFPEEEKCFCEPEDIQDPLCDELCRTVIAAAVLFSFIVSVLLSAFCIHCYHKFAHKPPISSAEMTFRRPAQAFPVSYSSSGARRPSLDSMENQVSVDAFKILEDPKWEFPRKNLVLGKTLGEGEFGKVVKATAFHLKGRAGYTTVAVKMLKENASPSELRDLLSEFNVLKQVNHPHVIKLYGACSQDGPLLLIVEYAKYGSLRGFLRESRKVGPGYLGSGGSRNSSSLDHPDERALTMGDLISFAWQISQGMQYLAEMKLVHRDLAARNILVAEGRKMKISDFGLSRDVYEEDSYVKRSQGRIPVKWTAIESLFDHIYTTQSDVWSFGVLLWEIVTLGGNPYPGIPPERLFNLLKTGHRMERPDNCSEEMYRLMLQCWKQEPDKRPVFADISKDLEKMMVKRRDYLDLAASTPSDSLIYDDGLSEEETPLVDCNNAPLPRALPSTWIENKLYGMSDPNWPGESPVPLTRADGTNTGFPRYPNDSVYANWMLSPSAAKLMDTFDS

On to `C=CC(=O)Nc1cccc(C(=O)Nc2ccc(Nc3cc(-c4[nH]c(SC)nc4C)ccn3)cc2)c1`, for which the % of control in assay [1] (at 1 µM) was found to be 107%; in [1] (at 5 µM) it was 102%; in assay [2] (at 1 µM), 88%; in assay [2] (at 5 µM) it was 91%.
Consider `COc1cc(Nc2nc(C)cc(-c3cnn4nc(OC)ccc34)n2)cc(C(F)(F)F)c1`, for which the % of control in assay [3] was 72%.
Regarding `CN(C)CCOc1ccc(-c2nc(-c3ccncc3)c(-c3ccc4c(c3)CC/C4=N\O)[nH]2)cc1`, the % of control worked out at 52% in assay [4] and 92% in [5].
Turning to `O=C(NOC[C@H](O)CO)c1ccc(F)c(F)c1Nc1ccc(I)cc1F`, the % of control was found to be 100% in [6] and 98% in assay [7].
In the case of `Cc1cc(C)cc([C@H]2c3cc(C)ccc3NC(=O)CN2C(=O)c2ccc(Br)s2)c1`, the % of activity in [8] (at 1 µM) came out at 96%; in assay [8] (at 10 µM), 99.3%.
Take `CC[C@@H]1[C@H](F)C(=O)N[C@@H]1COc1nccc2cc(C(N)=O)c(OC)cc12` [ZIMLOVISERTIB]: the % of inhibition in [9] is 94.3%.
Turning to `COc1cc(N(C)c2ccnc3ccc(C(F)(F)F)cc23)cc(OC)c1OC`, the % binding in assay [10] is 100%.
For `N#Cc1cccc(-c2c[nH]c3ncnc(N4CCOCC4)c23)c1`, the % of control in assay [11] and in [12] was 100% throughout.
